We go through 12 molecules from ChEMBL document CHEMBL1201862, “PubChem BioAssay data set” (2004).

Structures are written as SMILES.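 96-well plates; 48 h exposure; 5 concentrations. Endpoints by linear interpolation between flanking doses. Not reached: highest tested concentration assigned. GI50: concentration for 50% inhibition of growth.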 Active and inactive are the calls of the source. Cut-off read from the data, not from the text of the source: active = GI50 up to about 1.1 µM and inactive = higher.

Assay in all cases: inhibition of tumour cell growth, NCI panel, 48 h
Test [1] relates to SNB-75.
The test system of test [2] is UO-31.
Test [3] relates to U-251.
Test [4] concerns CAKI-1.
Test [5] deals with SF-268.
The subject of test [6] is MDA-MB-231.
Test [7] relates to SF-539.
Test [8] deals with SK-MEL-5.
For test [9], the system named is Malme-3M.
For test [10], the system named is HCT-15.
Test [11] relates to NCI-H460.
For test [12], the system named is 786-0.
For test [13], the system named is RXF 393.
Test [14] concerns TK-10.
Test [15] deals with NCI-H23.
The subject of test [16] is LOX IMVI.
Test [17] relates to MOLT-4.
Test [18] has as its system SN12C.
Test [19] deals with MDA-N.
The subject of test [20] is UACC-62.

Take `COC(=O)c1c(O)ccc2c1c1c(n2C)C(=O)c2ccccc2C1=O`: the GI50 is 2.48 µM (inactive) in test [1]; 6.75 µM (inactive) in [2]; 15.7 µM (inactive) in test [3]; 7.69 µM (inactive) in test [4]; 13.8 µM (inactive) in test [5]; 10 µM (inactive) in test [6]. Further, the GI50 in [7] was 17.6 µM (inactive); in [8], 30.9 µM (inactive); in test [9], 42.5 µM (inactive); in test [10] it was 13.1 µM; in test [11] it was 8 µM (inactive); in [12], 15.3 µM (inactive). The GI50 in test [13] is 15.4 µM (inactive); in test [14] it was 26.7 µM (inactive); in test [15], 19.7 µM (inactive); in test [16] it was 16.7 µM (inactive); in [17] it was 5.78 µM (inactive); in test [18], 11.9 µM (inactive).

`O=C1/C(=C/c2ccccc2)NC(=S)N1CN1CCCCC1`: the GI50 in test [1], in test [2], in test [3], in test [5], in [6] and in test [19] was > 100 µM (inactive) in each case. The GI50 was > 100 µM (inactive) in [20]; > 100 µM (inactive) in test [8]; over 100 µM in test [10]; > 100 µM (inactive) in [12]; > 100 µM (inactive) in test [15]; > 100 µM (inactive) in [16]. Also, the GI50 in [17] and in [18] was > 100 µM (inactive) in each case.

As for `O=C1/C(=C\c2ccc(Cl)cc2)N=C(c2ccccc2)N1n1c(=O)cn[nH]c1=S`, the GI50 in test [2] is 60.4 µM (inactive); in test [3], 19.8 µM (inactive); in [4], 40.2 µM (inactive); in test [7] it was > 100 µM (inactive); in test [19], 52.6 µM (inactive); in test [20], 33.7 µM (inactive). In addition, the GI50 in [8] was 21.7 µM (inactive); in test [9] it was > 100 µM (inactive); in [10], 21.5 µM; in test [11], > 100 µM (inactive); in test [12] it was 18.4 µM (inactive); in [15], 20.3 µM (inactive). Further, the results for the GI50 in test [16] and in test [17] were 27.8 µM (inactive) and 18.7 µM (inactive), respectively.

Take `C=C1OC2OC(C)C(NC(=O)OCC(Cl)(Cl)Cl)C(OC(C)=O)C2O1` (configuration not stated): the GI50 in test [2], in test [3], in [4], in [5], in [6] and in [7] was > 100 µM (inactive) each time. The GI50 is > 100 µM (inactive) in test [20]; > 100 µM (inactive) in test [8]; > 100 µM (inactive) in [9]; over 100 µM in test [10]; > 100 µM (inactive) in test [11]; > 100 µM (inactive) in test [12]. The GI50 in [13], in test [14], in test [15], in [16], in test [17] and in test [18] was > 100 µM (inactive) throughout.

With `CC(C)(C)C1CCC2c3c([nH]c4ccccc34)C3C(=O)N(c4cc(Br)cc(Br)c4)C(=O)C3C2C1` (configuration not stated), the GI50 in [2] is 6.97 µM (inactive); in test [3], 13.4 µM (inactive); in test [4], 13.7 µM (inactive); in test [6], 27 µM (inactive); in [7], 16.7 µM (inactive); in [19], 31.9 µM (inactive). Further, the GI50 is 25.1 µM (inactive) in [20]; 24.2 µM (inactive) in test [8]; 57.9 µM (inactive) in test [9]; 25.4 µM in [10]; 6.43 µM (inactive) in test [11]; 6.95 µM (inactive) in test [12]. For the same molecule, the GI50 in test [14] was 19.9 µM (inactive); in [15] it was 15.9 µM (inactive); in [16], 27.2 µM (inactive); in test [17] it was 5.26 µM (inactive); in test [18], 6.82 µM (inactive).

Turning to `COC(=O)c1csc(-c2csc(CCNC(=O)OC(C)(C)C)n2)n1`, the GI50 in test [1] was 51.8 µM (inactive); in test [2], > 100 µM (inactive); in test [3], > 100 µM (inactive); in test [5] it was > 100 µM (inactive); in test [7], > 100 µM (inactive); in test [19], > 100 µM (inactive). The GI50 in test [20] is 59.7 µM (inactive); in test [8] it was 90.6 µM (inactive); in test [9], > 100 µM (inactive); in test [10], over 100 µM; in test [11] it was > 100 µM (inactive); in [12], > 100 µM (inactive). Further, the GI50 in test [13] was > 100 µM (inactive); in test [14], > 100 µM (inactive); in [15], > 100 µM (inactive); in test [17], 42.7 µM (inactive); in test [18], > 100 µM (inactive).

For the molecule `COc1cc(S(=O)(=O)Nc2ccc(-c3csc(N4C(=O)CSC4c4ccccc4)n3)cc2)ccc1Cl` (configuration not stated), the GI50 is 67.3 µM (inactive) in test [1]; 79.4 µM (inactive) in test [2]; > 100 µM (inactive) in [4]; 33.7 µM (inactive) in test [5]; 80.7 µM (inactive) in test [7]; 39.9 µM (inactive) in test [19]. The GI50 was 13.2 µM (inactive) in test [20]; 92.9 µM (inactive) in [8]; > 100 µM (inactive) in test [9]; over 100 µM in test [10]; 31.4 µM (inactive) in test [11]; 76.2 µM (inactive) in [12]. The GI50 was 29.2 µM (inactive) in [13]; > 100 µM (inactive) in [15]; 30.5 µM (inactive) in test [16]; 25.6 µM (inactive) in [17]; > 100 µM (inactive) in test [18].

Turning to `C[C@H](c1ccccc1)N1C(=O)[C@@H](O)[C@H]1[C@H](CO)OCc1ccccc1`, the GI50 in [1], in test [2], in test [3], in test [5], in test [6] and in test [19] was > 100 µM (inactive) in each case. For the same molecule, the GI50 in test [20] was > 100 µM (inactive); in test [8], > 100 µM (inactive); in test [9], > 100 µM (inactive); in test [10], over 100 µM; in [12], > 100 µM (inactive); in test [14], > 100 µM (inactive). The GI50 in test [15], in [16], in [17] and in [18] was > 100 µM (inactive) in each case.

Regarding `COC(=O)C1=C(C(=O)OC)C(C(=O)c2ccc(Br)cc2)N2N=C(c3ccc(Cl)cc3)C=CC12` (configuration not stated), the GI50 in test [1] was 35.2 µM (inactive); in test [2], > 100 µM (inactive); in [3] it was > 100 µM (inactive); in test [4] it was 80.7 µM (inactive); in [5], 69.7 µM (inactive); in [6], > 100 µM (inactive). The GI50 in test [19] is > 100 µM (inactive); in test [20], 25.2 µM (inactive); in test [8], > 100 µM (inactive); in test [9] it was > 100 µM (inactive); in [10], over 100 µM; in test [11], > 100 µM (inactive). Besides, the GI50 in [12], in [14], in test [15], in [16], in [17] and in test [18] was > 100 µM (inactive) throughout.

As to `SC[C@@H]1COC[C@H](CS)S1`, the GI50 in [1] was 58.9 µM (inactive); in [2] it was > 100 µM (inactive); in test [3], > 100 µM (inactive); in test [5], > 100 µM (inactive); in test [6] it was > 100 µM (inactive); in test [7], > 100 µM (inactive). In addition, the GI50 is > 100 µM (inactive) in [19]; > 100 µM (inactive) in test [20]; > 100 µM (inactive) in test [8]; over 100 µM in [10]; > 100 µM (inactive) in test [11]; > 100 µM (inactive) in test [12]. Moreover, the GI50 in [14], in [15], in [16], in test [17] and in [18] was > 100 µM (inactive) in each case.

In the case of `N=C(N)NCCN1CCCCCc2ccccc21`, the GI50 is 3.48 µM (inactive) in test [1]; > 10 µM (inactive) in test [3]; > 10 µM (inactive) in [4]; 3.27 µM (inactive) in test [5]; > 10 µM (inactive) in test [6]; > 10 µM (inactive) in [7]. In addition, the GI50 in test [20] was 9.25 µM (inactive); in [8] it was > 10 µM (inactive); in test [9], > 10 µM (inactive); in test [10] it was over 10 µM; in test [11], > 10 µM (inactive); in test [12] it was > 10 µM (inactive). The GI50 in [13], in [14], in test [15], in [16], in [17] and in [18] was > 10 µM (inactive) throughout.

In the case of `COc1ccc2nc3ccc(OC)cc3c(SCc3ccccc3)c2c1`, the GI50 is > 88.7 µM (inactive) in test [1]; > 88.3 µM (inactive) in [3]; > 100 µM (inactive) in test [4]; > 100 µM (inactive) in [5]; > 100 µM (inactive) in [6]; > 89.3 µM (inactive) in test [7]. Besides, the GI50 in [20] was > 100 µM (inactive); in test [8], > 100 µM (inactive); in test [9], > 100 µM (inactive); in test [10], over 95.5 µM; in [11], > 89.1 µM (inactive); in test [12] it was 76 µM (inactive). For the same molecule, the GI50 in [13] is > 100 µM (inactive); in test [14] it was > 80.7 µM (inactive); in test [15], 64.7 µM (inactive); in test [16], > 83.4 µM (inactive); in test [17], > 41.6 µM (inactive); in test [18] it was > 100 µM (inactive).
